Data taken from article PMC11714206, “Massively Parallel Screening of Toll/Interleukin‐1 Receptor (TIR)‐Derived Peptides Reveals Multiple Toll‐Like Receptors (TLRs)‐Targeting Immunomodulatory Peptides” (Advanced Science, 2024).

Target: T1, MyD88^TIR (Homo sapiens, UniProt Q99836)
T1 construct: MyD88 (residues 148–296); 6xHis; made in house; host or cells: E. coli BL21 (DE3)
Experiment: T‐Surf phage library (P8 and P3) selection against MyD88^TIR, four rounds, NGS read counts
Format: binding
Conditions: for P8_MyD88 Rank (after) / P8_MyD88 Rank (before): P8 library; for P3_MyD88 Rank (after) / P3_MyD88 Rank (before): P3 library; for Population: P8_MyD88 pool: P8 T-Surf phage library, 4th round of selection against MyD88 TIR, share of NGS reads
In short: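 Coat TIR domain 5 µg mL^−1 overnight; block 0.2% BSA/PBS 1 h, 4 °C; add phage library 1 h, RT; wash ×4 PBS/0.5% Tween‐20; elute 100 mM HCl, neutralize Tris; amplify in TG1, PEG‐precipitate. Repeat to round 4; barcode PCR, NovaSeq, count reads.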

[1] = P8_MyD88: rank by NGS read count after grouping
[2] = P8_MyD88: rank by NGS read count before grouping
[3] = selection against MyD88 TIR, rank by count after grouping
[4] = selection against MyD88 TIR, rank by count before grouping
[5] = P8_MyD88: rank by count after grouping
[6] = P8_MyD88: rank by count before grouping
[7] = selection against MyD88, rank after grouping
[8] = selection against MyD88, rank before grouping
[9] = selection against MyD88, rank by count after grouping
[10] = selection against MyD88, rank by count before grouping
[11] = 4R selection against MyD88, rank after grouping
[12] = 4R selection against MyD88, rank before grouping
[13] = P3_MyD88: rank by count after grouping
[14] = P3_MyD88: rank by count before grouping

T1 sequence (Q99836 148-296): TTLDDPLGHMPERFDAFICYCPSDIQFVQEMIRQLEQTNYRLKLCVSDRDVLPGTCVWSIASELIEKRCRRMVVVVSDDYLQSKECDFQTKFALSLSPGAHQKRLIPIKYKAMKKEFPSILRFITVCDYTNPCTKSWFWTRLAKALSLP

PQELECIYKRLVSLIL
Rank (after) [1]: 1011 | Rank (before) [2]: 3504

PQELEWCYERLVSLIL
P8_MyD88 Rank (after) [3]: 240 | P8_MyD88 Rank (before) [4]: 3497

PQELEWFHKRLVRLIL
Rank (after) [5]: 455 | Rank (before) [6]: 3496

PQELEWFYERPVSLML
Rank (after) [5]: 458 | Rank (before) [6]: 3506

PQEQVWFYERQVSLIV
P8_MyD88 Rank (after) [7]: 533 | P8_MyD88 Rank (before) [8]: 3500

PQEREWFYERLVSLIL
Rank (after) [1]: 991 | Rank (before) [2]: 3499

PQVLGWFYERLVSLIL
Rank (after) [5]: 447 | Rank (before) [6]: 3414

PQVVACFFQRLESMIL
Rank (after) [1]: 871 | Rank (before) [2]: 3403

PRDLEWFYEHLVSLIL
P8_MyD88 Rank (after) [9]: 736 | P8_MyD88 Rank (before) [10]: 3409

PRDLEWLYERLVSLIL
P8_MyD88 Rank (after) [3]: 278 | P8_MyD88 Rank (before) [4]: 3410

PSDVRKKTGSLAKAFA
P3_MyD88 Rank (after) [3]: 285 | P3_MyD88 Rank (before) [4]: 2735

PSEVRKQTGSLAKAAL
P3_MyD88 Rank (after) [11]: 593 | P3_MyD88 Rank (before) [12]: 2756

PSEVRKQTGSLAKALCD
P3_MyD88 Rank (after) [7]: 488 | P3_MyD88 Rank (before) [8]: 2753

PSEVRKQTGSLAKALRRNCC
P3_MyD88 Rank (after) [3]: 254 | P3_MyD88 Rank (before) [4]: 1130

PSEVRNRPAAWRKRL
P3_MyD88 Rank (after) [3]: 195 | P3_MyD88 Rank (before) [4]: 1127

PSEVRVVDDGSVSPLEM
P3_MyD88 Rank (after) [3]: 211 | P3_MyD88 Rank (before) [4]: 1126

PVAHDLSKKMKIFATI
Rank (after) [13]: 474 | Rank (before) [14]: 2698

PYLLWVFDDEDGQELF
P8_MyD88 Rank (after) [3]: 199 | P8_MyD88 Rank (before) [4]: 291

QDLEQFYERLISRILQ
Rank (after) [5]: 113 | Rank (before) [6]: 121 | Population: 0.0181%

QDLEQFYERLVSLI
P8_MyD88 Rank (after) [9]: 685 | P8_MyD88 Rank (before) [10]: 3567

QDLGWFYERLFSQM
P8_MyD88 Rank (after) [9]: 735 | P8_MyD88 Rank (before) [10]: 3564

QDLGWFYERLISQILK
Rank (after) [5]: 108 | Rank (before) [6]: 114 | Population: 0.02%

QDLGWFYERLVSLF
P8_MyD88 Rank (after) [11]: 590 | P8_MyD88 Rank (before) [12]: 3565

QEVEGWRDALTKVASM
P3_MyD88 Rank (after) [3]: 226 | P3_MyD88 Rank (before) [4]: 2893

QGDPSYRLTLHYRDVN
P3_MyD88 Rank (after) [11]: 591 | P3_MyD88 Rank (before) [12]: 2866

QGGDEITPSLFKAFKD
P3_MyD88 Rank (after) [3]: 265 | P3_MyD88 Rank (before) [4]: 1150

QLIGCGNTFFRWKKKIR
Rank (after) [1]: 1002 | Rank (before) [2]: 3572

QLIQQWIELHLHQLH
P8_MyD88 Rank (after) [11]: 588 | P8_MyD88 Rank (before) [12]: 3585

QLIQQWIELHLHQLHL
P3_MyD88 Rank (after) [7]: 499 | P3_MyD88 Rank (before) [8]: 2880

QQISLVQLKVLEESHV
P8_MyD88 Rank (after) [11]: 648 | P8_MyD88 Rank (before) [12]: 3604

QQVVRYRLEIVRVTKL
P3_MyD88 Rank (after) [9]: 738 | P3_MyD88 Rank (before) [10]: 2882

QSAWALNQLLQIIDWH
P8_MyD88 Rank (after) [3]: 196 | P8_MyD88 Rank (before) [4]: 269

QWALEELRLIMELHSV
Rank (after) [5]: 158 | Rank (before) [6]: 175 | Population: 0.00809%

QYLRWPEDFQDVGWFL
Rank (after) [5]: 144 | Rank (before) [6]: 161 | Population: 0.00925%

QYSDTLLEHTANFRM
Rank (after) [13]: 392 | Rank (before) [14]: 2842

QYSDTLLEHTSKFPA
P3_MyD88 Rank (after) [7]: 492 | P3_MyD88 Rank (before) [8]: 2837

QYSGTPLAHTSKFPDE
P3_MyD88 Rank (after) [11]: 605 | P3_MyD88 Rank (before) [12]: 2832

QYSHTLLAHTSKFPDE
Rank (after) [13]: 432 | Rank (before) [14]: 2847

RELGVVDDGSVSALEM
Rank (after) [13]: 410 | Rank (before) [14]: 2692

RERPVGAQRGVRSLAT
Rank (after) [13]: 469 | Rank (before) [14]: 3286

RFGGDTFLEYLVLISM
P8_MyD88 Rank (after) [9]: 765 | P8_MyD88 Rank (before) [10]: 3753

RFWERLRPALKERLP
Rank (after) [13]: 449 | Rank (before) [14]: 2551

RFWERLRYMIPEVSHQ
P3_MyD88 Rank (after) [11]: 598 | P3_MyD88 Rank (before) [12]: 2545

RFWESQRYMKPNVSHT
P3_MyD88 Rank (after) [9]: 708 | P3_MyD88 Rank (before) [10]: 2552

RGFHWTEWENFVDIED
Rank (after) [1]: 968 | Rank (before) [2]: 3399

RISAFHKQLVMAVKAQ
P3_MyD88 Rank (after) [11]: 674 | P3_MyD88 Rank (before) [12]: 2608

RISAFHQQLLMALKTQ
P3_MyD88 Rank (after) [9]: 706 | P3_MyD88 Rank (before) [10]: 2609

RISAFHQQLVIALEAQ
P3_MyD88 Rank (after) [11]: 650 | P3_MyD88 Rank (before) [12]: 2595
